In PMC6116705, “Design, synthesis, in vitro antiproliferative activity and apoptosis-inducing studies of 1-(3′,4′,5′-trimethoxyphenyl)-3-(2′-alkoxycarbonylindolyl)-2-propen-1-one derivatives obtained by a molecular hybridisation approach” (Journal of Enzyme Inhibition and Medicinal Chemistry, 2018):
“And” between values parts separate entries of the source, which are not always exact repeats. Equal entries are not always repeated. “Also recorded” adds a separate entry of the source. Where two headings read alike, the source gives them in different places.

Tests used:
[1] = test system: human peripheral blood mononuclear cells (PBMC); test: Cytotoxicity on normal PBMC (quiescent or PHA-activated); type: cell-based; conditions: up to 10 μM, 24 h
Method: U-937 (human myeloid leukaemia) cells from DSMZ (German Collection of Microorganisms and Cell Cultures, Braunschweig, Germany) and U-937 cells overexpressing human Bcl-2 protein (designated U-937/Bcl-2, donated by Dr Jacqueline Bréard, INSERM U749, Faculté de Pharmacie Paris-Sud., Châtenay-Malabry, France) were cultured in RPMI-1640 medium containing 10% (v/v) heat-inactivated foetal bovine serum, 100 μg/mL streptomycin and 100 U/mL penicillin, incubated at 37 °C in a humidified atmosphere containing 5% CO2 as described. The functioning of U-937/Bcl-2 cells was tested using the cytotoxic agent 1-β-D-arabino-furanosylcytosine as previously described. Human peripheral blood mononuclear cells (PBMC) were isolated from heparin-anticoagulated blood of healthy volunteers by centrifugation with Ficoll-Paque Plus (GE Healthcare Bio-Sciences AB, Uppsala, Sweden). PBMC were also stimulated with phytohemagglutinin (2 μg/mL) for 48 h before the experimental treatment. The trypan blue dye exclusion method was used for counting the living/dead cells by a hematocytometer with 95% viability in all experiments. The cytotoxicity of compounds was evaluated by the colorimetric 3-(4,5-dimethyl-2-thiazolyl-)-2,5-diphenyl-2H-tetrazolium bromide (MTT) assay as previously described. […] After the addition of MTT (0.5 mg/mL), cells were incubated at 37 °C for 4 h. Sodium dodecyl sulphate (10% w/v) in 0.05 M HCl was added to the wells and then incubated at room temperature overnight in the dark. Absorbance was measured at 570 nm. […] Values are mean ± SE from at least three independent experiments, each performed in triplicate. Compounds were dissolved in DMSO and kept in the dark at 25 °C.

[2] = test system: U-937 cells overexpressing human Bcl-2 (U-937/Bcl-2); test: MTT cytotoxicity assay, U-937/Bcl-2; type: cell-based; conditions: U-937/Bcl-2, MTT, read-out: IC50, inhibition of cell growth
Method: (§1) U-937 (human myeloid leukaemia) cells from DSMZ (German Collection of Microorganisms and Cell Cultures, Braunschweig, Germany) and U-937 cells overexpressing human Bcl-2 protein (designated U-937/Bcl-2, donated by Dr Jacqueline Bréard, INSERM U749, Faculté de Pharmacie Paris-Sud., Châtenay-Malabry, France) were cultured in RPMI-1640 medium containing 10% (v/v) heat-inactivated foetal bovine serum, 100 μg/mL streptomycin and 100 U/mL penicillin, incubated at 37 °C in a humidified atmosphere containing 5% CO2 as described. The functioning of U-937/Bcl-2 cells was tested using the cytotoxic agent 1-β-D-arabino-furanosylcytosine as previously described. Human peripheral blood mononuclear cells (PBMC) were isolated from heparin-anticoagulated blood of healthy volunteers by centrifugation with Ficoll-Paque Plus (GE Healthcare Bio-Sciences AB, Uppsala, Sweden). PBMC were also stimulated with phytohemagglutinin (2 μg/mL) for 48 h before the experimental treatment. The trypan blue dye exclusion method was used for counting the living/dead cells by a hematocytometer with 95% viability in all experiments. The cytotoxicity of compounds was evaluated by the colorimetric 3-(4,5-dimethyl-2-thiazolyl-)-2,5-diphenyl-2H-tetrazolium bromide (MTT) assay as previously described. Briefly, 5 × 10^3 exponentially growing cells were seeded in 96-well microculture plates with increasing concentrations of compounds for 72 h. After the addition of MTT (0.5 mg/mL), cells were incubated at 37 °C for 4 h. Sodium dodecyl sulphate (10% w/v) in 0.05 M HCl was added to the wells and then incubated at room temperature overnight in the dark. Absorbance was measured at 570 nm. […] Values are mean ± SE from at least three independent experiments, each performed in triplicate. Compounds were dissolved in DMSO and kept in the dark at 25 °C.

[3] = test system: U-937/Bcl-2 cells; test: Cell cycle phase distribution and apoptosis, flow cytometry (propidium iodide) and fluorescence microscopy, U-937/Bcl-2; type: cell-based, human
Method: Fluorescent microscopy and flow cytometric analysis of propidium iodide-stained cells were performed as described. Briefly, cells were harvested and fixed in 3% paraformaldehyde and incubated at room temperature for 10 min. The fixative was removed, and the cells were washed with PBS, resuspended in 30–50 μL of PBS containing 20 μg/mL bis-benzimide trihydrochloride (Hoechst 33258) and incubated at room temperature for 15 min. Stained nuclei were visualized using a Zeiss fluorescence microscope.
Flow cytometric analysis was carried out using a BD FACSVerse™ cytometer (BD Biosciences, San Jose, CA, USA).

[4] = test system: human colon adenocarcinoma (HT29) cells; test: Antiproliferative assay, cell counting (Coulter Counter), HT29; type: cell-based; conditions: for fold more potent than CA-4: HT29 cell line, ratio of IC50 values
Method: Human cervix carcinoma (HeLa), human colon carcinoma (HT29), human breast carcinoma (MCF-7) and human lymphoma (HL-60) cells (3–5 × 10^4 cells) and a serial (five-fold) dilution of the test compounds were added to a 96-well microtiter plate. The cells were incubated for 72–96 h (depending on the tumor cell line) at 37 °C in a humidified 5% CO2 atmosphere. At the end of the incubation period, the cells were counted in a Coulter Counter (Coulter Electronics Ltd, Harpenden Herts, UK). […] The IC50 values represent the average (±standard deviation) of at least two to four independent experiments.

[5] = test system: human myeloid leukaemia U-937 cells; test: MTT cytotoxicity assay, U-937; type: cell-based; conditions: U-937, MTT, 72 h, read-out: IC50, inhibition of cell growth
Method: as §1

[6] = test system: bovine brain tubulin; test: Inhibition of tubulin polymerisation (turbidimetric tubulin assembly); type: biochemical; conditions: for IC50: tubulin 10 µM, 20 min at 30 °C, read-out: Tubulin assembly IC50±SD
Method: To evaluate the effect of the compounds on tubulin assembly in vitro[40], varying concentrations of compounds were preincubated with 10 μM bovine brain tubulin in 0.8M monosodium glutamate (pH adjusted to 6.6 with HCl in a 2.0M stock solution) at 30 °C and then cooled to 0 °C. After addition of 0.4 mM GTP, the mixtures were transferred to 0 °C cuvettes in a recording spectrophotometer and warmed to 30 °C. Tubulin assembly was followed turbidimetrically at 350 nm. […] The capacity of the test compounds to inhibit colchicine binding to tubulin was measured as described. The reaction mixtures contained 1 μM tubulin, 5 μM [^3H]colchicine and 5 μM test compound.

SMILES | Toxicity to normal PBMC [1] | IC50 ([2]; Homo sapiens, U-937, 72 h) [µM] | % G1 ([3]; U-937/Bcl-2, 24 h, 0.3 µM) [%] | % G2-M ([3]; U-937/Bcl-2, 24 h, 0.3 µM) [%] | % S ([3]; U-937/Bcl-2, 24 h, 0.3 µM) [%] | % Sub-G1 ([3]; U-937/Bcl-2, 24 h, 0.3 µM) [%] | % G1 ([3]; U-937/Bcl-2, 24 h, 1 µM) [%] | % G2-M ([3]; U-937/Bcl-2, 24 h, 1 µM) [%] | % S ([3]; U-937/Bcl-2, 24 h, 1 µM) [%] | % Sub-G1 ([3]; U-937/Bcl-2, 24 h, 1 µM) | % G1 ([3]; U-937/Bcl-2, 48 h, 0.3 µM) [%] | % G2-M ([3]; U-937/Bcl-2, 48 h, 0.3 µM) [%] | % S ([3]; U-937/Bcl-2, 48 h, 0.3 µM) [%] | % Sub-G1 ([3]; U-937/Bcl-2, 48 h, 0.3 µM) [%] | % G1 ([3]; U-937/Bcl-2, 48 h, 1 µM) [%] | % G2-M ([3]; U-937/Bcl-2, 48 h, 1 µM) [%] | % S ([3]; U-937/Bcl-2, 48 h, 1 µM) [%] | % Sub-G1 ([3]; U-937/Bcl-2, 48 h, 1 µM) | % G1 ([3]; U-937/Bcl-2, 72 h, 0.3 µM) [%] | % G2-M ([3]; U-937/Bcl-2, 72 h, 0.3 µM) [%] | also measured
CCOC(=O)c1[nH]c2ccc(OC)cc2c1/C=C/C(=O)c1cc(OC)c(OC)c(OC)c1 [Compound 9d, (E)-Ethyl 5-methoxy-3-(3-oxo-3-(3,4,5-trimethoxyphenyl)prop-1-en-1-yl)-1H-indole-2-carboxylate] | devoid of significant cytotoxic activity; also recorded: no appreciable toxicity | 0.7 ± 0.2 | 41.0 ± 1.3 | 29.7 ± 0.2 | 25.1 ± 1.1 | 2.8 ± 0.2 | 29.3 ± 0.3 | 35.7 ± 0.2 | 28.7 ± 0.5 | 4.6 ± 0.3% | 49.1 ± 0.4 | 18.9 ± 0.7 | 26.7 ± 2.2 | 4.4 ± 1.0 | 33.2 ± 2.3 | 31.0 ± 2.8 | 27.4 ± 0.2 | 6.5 ± 0.5% | 53.6 ± 1.2 | 20.0 ± 0.8 | % S ([3]; U-937/Bcl-2, 72 h, 0.3 µM): 21.8 ± 1.4%; % Sub-G1 ([3]; U-937/Bcl-2, 72 h, 0.3 µM): 3.1 ± 0.9%; % G1 ([3]; U-937/Bcl-2, 72 h, 1 µM): 41.6 ± 2.5 %; % G2-M ([3]; U-937/Bcl-2, 72 h, 1 µM): 24.8 ± 2.6%; % S ([3]; U-937/Bcl-2, 72 h, 1 µM): 24.0 ± 1.8%; % Sub-G1 ([3]; U-937/Bcl-2, 72 h, 1 µM): 7.5 ± 1.2%; apoptosis induction (fluorescence microscopy and flow cytometry) ([3]; U-937/Bcl-2 cells): only induced low apoptosis; fold more potent than CA-4 [4]: 8–24 fold; IC50 [5]: 2.9 ± 0.7 µM; IC50 [6]: > 20 µM
CCOC(=O)c1[nH]c2cc(OC)ccc2c1/C=C/C(=O)c1cc(OC)c(OC)c(OC)c1 [Compound 9f, (E)-Ethyl 6-methoxy-3-(3-oxo-3-(3,4,5-trimethoxyphenyl)prop-1-en-1-yl)-1H-indole-2-carboxylate] | devoid of significant cytotoxic activity; also recorded: no appreciable toxicity | 1 ± 0.8 | 26.0 ± 0.9 | 41.1 ± 0.4 | 25.2 ± 0.3 | 6.2 ± 0.9 | 17.6 ± 0.6 | 41.0 ± 2.3 | 18.1 ± 0.1 | 20.6 ± 1.6 % | 27.4 ± 0.8 | 31.6 ± 0.3 | 26.3 ± 0.4 | 11.1 ± 0.1 | 16.0 ± 0.0 | 28.4 ± 1.8 | 16.5 ± 1.0 | 30.2 ± 3.3 % | 30.3 ± 2.9 | 29.4 ± 2.0 | % S ([3]; U-937/Bcl-2, 72 h, 0.3 µM): 23.8 ± 0.7%; % Sub-G1 ([3]; U-937/Bcl-2, 72 h, 0.3 µM): 11.8 ± 0.5 %; % G1 ([3]; U-937/Bcl-2, 72 h, 1 µM): 14.0 ± 0.6 %; % G2-M ([3]; U-937/Bcl-2, 72 h, 1 µM): 22.7 ± 0.2%; % S ([3]; U-937/Bcl-2, 72 h, 1 µM): 17.1 ± 1.4%; % Sub-G1 ([3]; U-937/Bcl-2, 72 h, 1 µM): 37.7 ± 1.5 %; fold more potent than CA-4 [4]: 8–24 fold; IC50 [5]: 6.5 ± 1.7 µM; IC50 [6]: 17 ± 2 µM
COC(=O)c1[nH]c2cc(OC)ccc2c1/C=C/C(=O)c1cc(OC)c(OC)c(OC)c1 [Compound 9e, (E)-Methyl 6-methoxy-3-(3-oxo-3-(3,4,5-trimethoxyphenyl)prop-1-en-1-yl)-1H-indole-2-carboxylate] | devoid of significant cytotoxic activity; also recorded: no appreciable toxicity | ~1 | 24.7 ± 0.5 | 40.1 ± 1.3 | 23.2 ± 0.2 | 9.8 ± 0.5 | 17.4 ± 0.2 | 47.3 ± 1.2 | 18.1 ± 1.7 | 15% and 14.7 ± 0.7 % | 23.0 ± 0.7 | 34.3 ± 0.5 | 22.4 ± 0.2 | 14.6 ± 0.4 | 13.0 ± 0.9 | 33.2 ± 0.9 | 15.4 ± 0.1 | 28% and 28.0 ± 0.7 % | 22.4 ± 0.4 | 31.3 ± 1.3 | IC50 ([2]; 72 h): 1.1 ± 1 µM; fold increase in the percentage of apoptotic (hypodiploid) cells ([3]; U-937/Bcl-2, 1 μM, 72 h, versus control): ~20 fold; % S ([3]; U-937/Bcl-2, 72 h, 0.3 µM): 21.8 ± 0.8%; % Sub-G1 ([3]; U-937/Bcl-2, 72 h, 0.3 µM): 17.6 ± 0.5 %; % G1 ([3]; U-937/Bcl-2, 72 h, 1 µM): 12.8 ± 0.5 %; % G2-M ([3]; U-937/Bcl-2, 72 h, 1 µM): 23.1 ± 2.2%; % S ([3]; U-937/Bcl-2, 72 h, 1 µM): 16.0 ± 0.7%; % Sub-G1 ([3]; U-937/Bcl-2, 72 h, 1 µM): 36% and 36.1 ± 3.3 %; fold more potent than CA-4 [4]: 8–24 fold; IC50 ([4]; Homo sapiens, HT-29, HT29, 72–96 h, read-out: IC50, inhibition of proliferation): 0.16 ± 0.02 µM; IC50 [5]: 5.7 ± 0.1 µM; fold less potent than CA-4 as inhibitor of tubulin polymerisation ([6]; ratio of tubulin assembly IC50 values): 10 fold; IC50 [6]: 6.2 ± 0.6 µM
